Data: patent publication US20150045291A1, “LIPOPEPTIDE CONJUGATES COMPRISING SPHINGOLIPID AND HIV GP41 DERIVED PEPTIDES” (priority 2012, published 2015)
Like-named read-outs stand apart in the source and are kept apart here. Starred links: 1 amine or outer side, 2 acyl side, 3 side chain; linkers in the order of their positions; H or OH if unused. Residues, ends and D or L forms follow the SMILES beside them. Groups on a side chain read outwards from the residue. *: point of attachment. Sphinganine = CCCCCCCCCCCCCCC[C@@H](O)[C@H](CO)N*; X2 = CCCCCCCCCCCCC/C=C/[C@@H](O)[C@H](CO)N*; CO = O=C([*:1])[*:2]

System: fully infectious HIV-1 HXB2
Settings: for IC90: read-out: IC90 (nM), […]
[1] = read-out: IC50 (inhibitory concentration at 50% infectivity), TZM-bl cells, fully contagious HXB2 HIV-1
[2] = fully infectious HIV-1 system (Table 2)
[3] = read-out: IC50 (nM), […], fully infectious HIV-1 system (Table 3)
[4] = fully infectious HIV-1 system (Table 3)

Q: With `CCCCCCCCCCCCC/C=C/[C@@H](O)[C@H](CO)NC(=O)N[C@@H](CC(C)C)C(=O)N[C@@H](CC(C)C)C(=O)N[C@@H](CCC(N)=O)C(=O)N[C@@H](CC(C)C)C(=O)N[C@H](C(=O)N[C@H](C(=O)N[C@@H](Cc1c[nH]c2ccccc12)C(=O)NCC(=O)N[C@H](C(=O)N[C@@H](CCCCN)C(=O)N[C@@H](CCC(N)=O)C(=O)N[C@@H](CC(C)C)C(=O)N[C@@H](CCC(N)=O)C(=O)N[C@@H](C)C(=O)N[C@@H](CCCNC(=N)N)C(=O)N[C@H](C(=O)N[C@@H](CC(C)C)C(N)=O)[C@@H](C)CC)[C@@H](C)CC)C(C)C)[C@@H](C)O` [Sphingosine-N17, Sphingosine-LLQLTVWGIKQLQARIL] ({X2-CO}-LLQLTVWGIKQLQARIL-NH2) as the molecule, how does the IC50 [1] read?
A: 208 nM

Q: With `CCCCCCCCCCCCCCC[C@@H](O)[C@H](CO)NC(=O)N[C@@H](CCC(N)=O)C(=O)N[C@@H](CCCCN)C(=O)N[C@H](C(=O)N[C@@H](C)C(=O)N[C@@H](CCCNC(=N)N)C(=O)N[C@@H](CC(C)C)C(=O)N[C@@H](CCC(N)=O)C(=O)N[C@H](C(=O)N[C@@H](CC(C)C)C(=O)N[C@@H](Cc1c[nH]c2ccccc12)C(=O)N[C@@H](CC(C)C)C(=O)N[C@@H](CCC(N)=O)C(=O)N[C@H](C(=O)NCC(=O)N[C@H](C(=O)N[C@@H](CC(C)C)C(=O)N[C@@H](CC(C)C)C(N)=O)C(C)C)[C@@H](C)CC)[C@@H](C)O)[C@@H](C)CC` [Sphing-N17 scrambled] ({Sphinganine-CO}-QKIARLQTLWLQIGVLL-NH2) as the molecule, how does the IC50 [2] read?
A: > 4000 nM

Q: How did the “Effect on viral infectivity / fusion (in words)” value (at / up to 1 μM) turn out when `CCCCCCCCCCCCCCC[C@@H](O)[C@@H](N)CO` [sphinganine, D-erythro-Dihydrosphingosine, reference compound] was run?
A: did not affect viral infectivity

Q: `CCCCCCCCCCCCCCC[C@@H](O)[C@H](CO)NC(=O)N[C@@H](CC(C)C)C(=O)N[C@@H](CC(C)C)C(=O)N[C@@H](CCC(N)=O)C(=O)N[C@@H](CC(C)C)C(=O)N[C@H](C(=O)N[C@H](C(=O)N[C@@H](Cc1c[nH]c2ccccc12)C(=O)NCC(=O)N[C@H](C(=O)N[C@@H](CCCCN)C(=O)N[C@@H](CCC(N)=O)C(=O)N[C@@H](CC(C)C)C(=O)N[C@@H](CCC(N)=O)C(=O)N[C@@H](C)C(N)=O)[C@@H](C)CC)C(C)C)[C@@H](C)O` [Sphing-N14, Sphinganine-LLQLTVWGIKQLQA] ({Sphinganine-CO}-LLQLTVWGIKQLQA-NH2) was tested. Which IC50 [2] did it give?
A: 500 ± 100 nM

Q: What does the source list for `CCCCCCCCCCCCCCC[C@@H](O)[C@H](CO)NC(=O)NCCCC[C@H](NC(=O)[C@H](CC(C)C)NC(=O)[C@@H](NC(=O)[C@H](CCCNC(=N)N)NC(=O)[C@H](C)NC(=O)[C@H](CCC(N)=O)NC(=O)[C@H](CC(C)C)NC(=O)[C@H](CCC(N)=O)NC(=O)[C@H](CCCCN)NC(=O)[C@@H](NC(=O)CNC(=O)[C@H](Cc1c[nH]c2ccccc12)NC(=O)[C@@H](NC(=O)[C@@H](NC(=O)[C@H](CC(C)C)NC(=O)[C@H](CCC(N)=O)NC(=O)[C@H](CC(C)C)NC(=O)[C@@H](N)CC(C)C)[C@@H](C)O)C(C)C)[C@@H](C)CC)[C@@H](C)CC)C(N)=O` [N17K-sphing, LLQLTVWGIKQLQARILK-Sphinganine] (H-LLQLTVWGIKQLQARILK([CO-Sphinganine])-NH2)?
A: IC50 [2]: 291 ± 102 nM; IC50 [1]: 287 nM

Q: `CC[C@H](C)[C@H](NC(=O)[C@H](CCC(N)=O)NC(=O)[C@H](CC(C)C)NC(=O)[C@H](Cc1c[nH]c2ccccc12)NC(=O)[C@H](CC(C)C)NC(=O)[C@@H](NC(=O)[C@H](CCC(N)=O)NC(=O)[C@H](CC(C)C)NC(=O)[C@H](CCCNC(=N)N)NC(=O)[C@H](C)NC(=O)[C@@H](NC(=O)[C@H](CCCCN)NC(=O)[C@@H](N)CCC(N)=O)[C@@H](C)CC)[C@@H](C)O)C(=O)NCC(=O)N[C@H](C(=O)N[C@@H](CC(C)C)C(=O)N[C@@H](CC(C)C)C(N)=O)C(C)C` [N17 scrambled, QKIARLQTLWLQIGVLL] (H-QKIARLQTLWLQIGVLL-NH2; C-terminus assumed) was tested. Which IC50 [2] did it give?
A: > 4000 nM

Q: Which IC50 [2] does the source give for `CCCCCCCCCCCCCCC[C@@H](O)[C@H](CO)NC(=O)N[C@@H](CCC(=O)O)C(=O)N[C@@H](CC(C)C)C(=O)N[C@@H](CCC(N)=O)C(=O)N[C@@H](CC(C)C)C(=O)N[C@H](C(=O)N[C@@H](CCC(N)=O)C(=O)N[C@@H](Cc1c[nH]c2ccccc12)C(=O)N[C@@H](CCCCN)C(=O)N[C@H](C(=O)N[C@@H](CCCCN)C(=O)N[C@@H](CCC(N)=O)C(=O)N[C@@H](CC(C)C)C(=O)N[C@@H](CC(C)C)C(=O)N[C@@H](C)C(=O)N[C@@H](CCCNC(=N)N)C(=O)N[C@H](C(=O)N[C@@H](CC(C)C)C(=O)N[C@@H](CCCCN)C(N)=O)[C@@H](C)CC)[C@@H](C)CC)[C@@H](C)O` [Sphing-N17mut (e, g) K, Sphinganine-ELQLTQWKIKQLLARILK] ({Sphinganine-CO}-ELQLTQWKIKQLLARILK-NH2) here?
A: 120 ± 30 nM

Q: Which IC50 [3] does the source give for `CCCCCCCCCCCCCCC[C@@H](O)[C@H](CO)NC(=O)NCCCC[C@H](NC(=O)[C@@H](NC(=O)[C@H](Cc1ccc(O)cc1)NC(=O)[C@H](CC(N)=O)NC(=O)[C@H](CC(N)=O)NC(=O)[C@@H](NC(=O)[C@H](CCC(=O)O)NC(=O)[C@H](CCCNC(=N)N)NC(=O)[C@H](CC(=O)O)NC(=O)[C@H](Cc1c[nH]c2ccccc12)NC(=O)[C@H](CCC(=O)O)NC(=O)[C@H](CCSC)NC(=O)[C@H](Cc1c[nH]c2ccccc12)NC(=O)[C@@H](NC(=O)[C@@H](N)[C@@H](C)O)[C@@H](C)O)[C@@H](C)CC)[C@@H](C)O)C(N)=O` [PBDK-Sphing, TTWMEWDREINNYTK-Sphinganine] (H-TTWMEWDREINNYTK([CO-Sphinganine])-NH2; N-terminus assumed) here?
A: 467 ± 140 nM

Q: What about the IC90 [4] of the same molecule?
A: 1090 ± 100 nM

Q: `CCCCCCCCCCCCCCC[C@@H](O)[C@H](CO)NC(=O)N[C@@H](CC(C)C)C(=O)N[C@@H](CC(C)C)C(=O)N[C@@H](CCC(N)=O)C(=O)N[C@@H](CC(C)C)C(=O)N[C@H](C(=O)N[C@H](C(=O)N[C@@H](Cc1c[nH]c2ccccc12)C(=O)NCC(=O)N[C@H](C(=O)N[C@@H](CCCCN)C(=O)N[C@@H](CCC(N)=O)C(=O)N[C@@H](CC(C)C)C(=O)N[C@@H](CCC(N)=O)C(=O)N[C@@H](C)C(=O)N[C@@H](CCCNC(=N)N)C(=O)N[C@H](C(=O)N[C@@H](CC(C)C)C(=O)N[C@@H](CCCCN)C(N)=O)[C@@H](C)CC)[C@@H](C)CC)C(C)C)[C@@H](C)O` [Sphing-N17K, Sphinganine-LLQLTVWGIKQLQARILK] ({Sphinganine-CO}-LLQLTVWGIKQLQARILK-NH2) was tested. Which IC50 [2] did it give?
A: 118 ± 18 nM

Q: What about the IC50 [1] of the same molecule?
A: 116 nM

Q: `CCCCCCCCCCCCCCC[C@@H](O)[C@H](CO)NC(=O)NCCCC[C@H](NC(=O)[C@@H](NC(=O)[C@H](CCC(=O)O)NC(=O)[C@H](CCCNC(=N)N)NC(=O)[C@H](CC(=O)O)NC(=O)[C@H](Cc1c[nH]c2ccccc12)NC(=O)[C@H](CCC(=O)O)NC(=O)[C@H](CCSC)NC(=O)[C@H](Cc1c[nH]c2ccccc12)NC(=O)[C@@H](N)[C@@H](C)O)[C@@H](C)CC)C(N)=O` [Truncated-Sphing, TWMEWDREIK-Sphinganine] (H-TWMEWDREIK([CO-Sphinganine])-NH2; N-terminus assumed) was tested. Which IC50 [3] did it give?
A: 1330 ± 270 nM

Q: And the IC90 [4]?
A: 2480 ± 320 nM

Q: For `CC(C)C[C@H](NC(=O)[C@H](CCCNC(=N)N)NC(=O)[C@H](CCCNC(=N)N)NC(=O)[C@H](C)NC(=O)[C@H](CCC(N)=O)NC(=O)[C@H](CC(N)=O)NC(=O)[C@H](CCC(N)=O)NC(=O)[C@H](CCCCN)NC(=O)[C@H](CO)NC(=O)CNC(=O)[C@H](Cc1c[nH]c2ccccc12)NC(=O)[C@@H](NC(=O)[C@H](CO)NC(=O)[C@H](CC(C)C)NC(=O)[C@H](CCC(N)=O)NC(=O)[C@H](CCC(=O)O)NC(=O)[C@@H](N)CC(C)C)C(C)C)C(N)=O` [N17mut (a, d), LEQLSVWGSKQNQARRL] (H-LEQLSVWGSKQNQARRL-NH2; C-terminus assumed), which IC50 [2] is on record?
A: > 4000 nM

Q: For `CC[C@H](C)[C@H](NC(=O)CNC(=O)[C@H](Cc1c[nH]c2ccccc12)NC(=O)[C@@H](NC(=O)[C@@H](NC(=O)[C@H](CC(C)C)NC(=O)[C@H](CCC(N)=O)NC(=O)[C@H](CC(C)C)NC(=O)[C@@H](N)CC(C)C)[C@@H](C)O)C(C)C)C(=O)N[C@@H](CCCCN)C(=O)N[C@@H](CCC(N)=O)C(=O)N[C@@H](CC(C)C)C(=O)N[C@@H](CCC(N)=O)C(=O)N[C@@H](C)C(=O)N[C@@H](CCCNC(=N)N)C(=O)N[C@H](C(=O)N[C@@H](CC(C)C)C(=O)N[C@@H](CCCCN)C(N)=O)[C@@H](C)CC` [N17K, LLQLTVWGIKQLQARILK] (H-LLQLTVWGIKQLQARILK-NH2; C-terminus assumed), which IC50 [2] is on record?
A: > 4000 nM

Q: `CCCCCCCCCCCCCCC[C@@H](O)[C@H](CO)NC(=O)N[C@@H](CC(C)C)C(=O)N[C@@H](CCC(=O)O)C(=O)N[C@@H](CCC(N)=O)C(=O)N[C@@H](CC(C)C)C(=O)N[C@@H](CO)C(=O)N[C@H](C(=O)N[C@@H](Cc1c[nH]c2ccccc12)C(=O)NCC(=O)N[C@@H](CO)C(=O)N[C@@H](CCCCN)C(=O)N[C@@H](CCC(N)=O)C(=O)N[C@@H](CC(N)=O)C(=O)N[C@@H](CCC(N)=O)C(=O)N[C@@H](C)C(=O)N[C@@H](CCCNC(=N)N)C(=O)N[C@@H](CCCNC(=N)N)C(=O)N[C@@H](CC(C)C)C(N)=O)C(C)C` [Sphing-N17mut (a, d)] ({Sphinganine-CO}-LEQLSVWGSKQNQARRL-NH2) was tested. Which IC50 [2] did it give?
A: > 4000 nM

Q: What does the source list for `CCCCCCCCCCCCCCC[C@@H](O)[C@H](CO)NC(=O)NCCCC[C@H](NC(=O)[C@H](CC(N)=O)NC(=O)[C@H](Cc1c[nH]c2ccccc12)NC(=O)[C@H](CCSC)NC(=O)[C@H](Cc1ccc(O)cc1)NC(=O)[C@H](CC(N)=O)NC(=O)[C@@H](NC(=O)[C@H](CC(=O)O)NC(=O)[C@H](CCC(=O)O)NC(=O)[C@H](CCCNC(=N)N)NC(=O)[C@H](Cc1c[nH]c2ccccc12)NC(=O)[C@@H](NC(=O)[C@H](CCC(=O)O)NC(=O)[C@@H](NC(=O)[C@@H](N)[C@@H](C)O)[C@@H](C)O)[C@@H](C)CC)[C@@H](C)O)C(N)=O` [Scrambled-Sphing, TTEIWREDTNYMWNK-sphing] (H-TTEIWREDTNYMWNK([CO-Sphinganine])-NH2; N-terminus assumed)?
A: IC50 [3]: 895 ± 70 nM; IC90 [4]: 6260 ± 3670 nM
